“Also recorded” adds a separate entry of the source.
Experiments:
[1] = Oral bioavailability of VX-950 (statement); conditions: in vivo
[2] = Randomized, double-blind, placebo-controlled single-dose escalation study in healthy male volunteers; format: in vivo, human; conditions: single doses, 25 mg to 1250 mg
Experimental: Doses of 25 mg to 1250 mg were evaluated.

[3] = test system: VX-950-resistant variants of HCV; assay: IC50 shift of VX-950-resistant variants
genotype 1 HCV = conditions: PROVE 1
HCV genotype 1 = assay: Phase 1b trial, Study VX04-950-101; conditions: subjects infected with HCV genotype 1

For `CCC[C@H](NC(=O)[C@@H]1[C@H]2CCC[C@H]2CN1C(=O)[C@@H](NC(=O)[C@@H](NC(=O)c1cnccn1)C1CCCCC1)C(C)(C)C)C(=O)C(=O)NC1CC1` [VX-950], the oral bioavailability [1] was “orally bioavailable”, the “serious / severe adverse events” value [2] was “No serious adverse events were reported; also recorded: No adverse events were considered to be severe” and the tolerability [2] was “well tolerated at all dose levels”. For the same compound, the “increase in IC50” value [3] was 7-20 fold, the “pharmacokinetics of telaprevir among the different racial/ethnic groups” value (genotype 1 HCV) was “No differences were observed” and the antiviral activity (HCV genotype 1) was “substantial antiviral activity”.
